Measured values as given in US20210361771A1, “TERPENE COUPLING CONJUGATE” (LABORATOIRES ERIGER, priority 2020, published 2021).
Values joined by “and” are separate entries in the source; they are usually repeats but may differ in a detail not shown here. Equal entries are not always repeated.

What was measured:
[1] = Stability of the nanoparticulate suspensions over time (DLS); assay type: physicochemical; conditions: suspension stored at 23° C.
Procedure: The mean particle sizes were measured using the “Dynamic Light Scattering” (DLS) method on a Malvern-Panalytical Nano-Sizer ZS® at 25° C. with a detection angle of 173° and a wavelength of 633 nm. The reported sizes are determined by the mean of three measurements. The measurements were carried out in polystyrene cuvettes.
A solution of conjugate in EtOH (2 mg for 0.5 mL) is added dropwise to vigorously stirred MiliQ water (1 mL). The formation of nanoparticles is observed in that the solution becomes partially cloudy. The suspension that is thus obtained is transferred to a flask and the EtOH is evaporated on a rotary evaporator (200 mbar for 5 min, then 130 mbar for 1 min at 40° C. and at 50 revolutions per minute).
The residual suspension is transferred to a vial and stored at 23° C.
The samples are prepared as follows: 40 μL of the residual suspension is dissolved in 500 μL of MiliQ H2O.
The stability of the suspensions was measured over time and the results are summarized in Tables 2 and 3 and in the graph of FIG. 1 and in the graph of FIG. 2.

[2] = Influence of phytolization on the stability of retinol, HPLC monitoring; assay type: physicochemical; conditions: for A (mU), HPLC area, single measurement: 6 mg/L in H2O/iPrOH 1:1, 21° C., ambient light; for A (mU), HPLC area, Average: average of two measurements
Procedure: The HPLC analyzes were carried out with an “Ultimate 3000 system” chain, Dionex®, France on a C18 “Vintage series KR C18—5 μm-150×4.6 mm (Interchim®) column. The samples were detected by UV absorption at λ=325 nm.
Vitamin A (retinol) is known to be sensitive to oxygen and UV radiation. The phytolization process allows retinol to be stabilized.
The solutions of retinol and conjugate 9 in nanoparticulate form (6 mg/L in an H2O/iPrOH 1:1 mixture) were stored at 21° C. in ambient light and analyzed by HPLC over time (24 and 48 h).
The variation in the area of the compounds over time is shown over time (average of two measurements)—see Table 5 and the graph of FIG. 3.

Row | d (nm) ([1]; Time 1 h) | d (nm) ([1]; Time 24 h) | d (nm) ([1]; Time 168 h) | d (nm) ([1]; Time 196 h) | Variation of areas ([2]; t0) | A (mU), HPLC area, single measurement ([2]; t0) | A (mU), HPLC area, Average ([2]; t0) [mU] | A (mU), HPLC area, single measurement ([2]; t24 h) | A (mU), HPLC area, Average ([2]; t24 h) [mU] | Variation of areas ([2]; t24 h vs t0) | A (mU), HPLC area, single measurement ([2]; t48 h) | A (mU), HPLC area, Average ([2]; t48 h) [mU] | Variation of areas ([2]; t48 h vs t0) | Breakdown rate of free retinol compared with conjugate 9 ([2]; free form vs nanoparticulate conjugate, 48 h) | Compound
1 | 256.2 | 269.7 | 271.2 | 269.6 | – | – | – | – | – | – | – | – | – | – | C/C(=C\COC(=O)CCC(=O)OC1CCC(C(C)(C)C)CC1)CCC[C@H](C)CCC[C@H](C)CCCC(C)C (mixture of isomers) [Conjugate 7, Phytyl (4-tert-butyl cyclohexyl) succinate]
2 | 167.4 | 165.2 | 151.8 | 131.3 | 0.0000 | 4.1604 mU and 4.0495 mU | 4.1050 | 3.4609 mU and 3.3380 mU | 3.3995 | 0.1719 | 2.9536 mU and 2.9385 mU | 2.9461 | 0.2823 | – | CC1=C(/C=C/C(C)=C/C=C/C(C)=C/COC(=O)CCC(=O)OC/C=C(\C)CCC[C@H](C)CCC[C@H](C)CCCC(C)C)C(C)(C)CCC1 [Conjugate 9, Phytyl Retinyl Succinate]
3 | – | – | – | – | 0.0000 | 0.0502 mU and 0.0694 mU | 0.0598 | 0.0354 mU and 0.0360 mU | 0.0357 | 0.4030 | 0.0218 mU and 0.0273 mU | 0.0246 | 0.5895 | twice as quickly | CC1=C(/C=C/C(C)=C/C=C/C(C)=C/CO)C(C)(C)CCC1 [Retinol, retinol]
4 | 270.0 | 369.7 | 502.4 | 436.8 | – | – | – | – | – | – | – | – | – | – | Phytyl Diclofenate [Conjugate 4]
5 | 132.9 | 154.5 | 156.6 | 164.1 | – | – | – | – | – | – | – | – | – | – | Phytyl Ibuprofenate [Conjugate 3]
